PMC3634413, “Synthesis of Thieno[2,3-b]thiophene Containing Bis-Heterocycles-Novel Pharmacophores” (International Journal of Molecular Sciences, 2013)
Where two headings read alike, the source gives them in different places.

How the values were obtained:
PC-3 cell line = test: Anticancer (cytotoxic) activity, MTT colorimetric assay; type: cell-based; settings: compounds 1–30 μM, n = 3, read-out: IC50 ± SEM, Anticancer Activity (PC-3 Cell line)
Procedure: Cytotoxic activity of compounds was evaluated in 96-well flat-bottomed microplates by using the standard MTT (3-[4,5-dimethylthiazole-2-yl]-2,5-diphenyl-tetrazolium bromide, MP) colorimetric assay. For this purpose, PC3 cells (Prostrate Cancer) were cultured in Dulbecco’s Modified Eagle Medium, supplemented with 10% of fetal bovine serum (FBS, PAA), 100 IU/mL of penicillin and 100 μg/mL of streptomycin in 75 cm^2 flasks, and kept in 5% CO2 incubator at 37 °C. Exponentially growing cells were harvested, counted with a haemocytometer, and diluted with a particular medium with 5% FBS. Cell culture with the concentration of 1 × 10^5 cells/mL was prepared and introduced (100 μL/well) into 96-well plates. After overnight incubation, medium was removed and 200 μL of fresh medium was added with different concentrations of compounds (1–30 μM). Stock solution, 20 mM of compounds were prepared in 100% DMSO, and the final concentration of DMSO at 30 μM is 0.15%. After 48 h, 200 μL MTT (0.5 mg/mL) was added to each well and incubated further for four hours. Subsequently, 100 μL of DMSO was added to each well. The extent of MTT reduction to formazan within cells was calculated by measuring the absorbance at 570 nm, using a microplate reader (SpectraMax plus, Molecular Devices, Sunnyvale, CA, USA). The cytotoxicity was recorded as concentration causing 50% growth inhibition (IC50) for PC3 cells. The percent inhibition was calculated by using the following formula:
% Inhibition=100-((mean of OD of test compound-mean of OD of negative control)/(mean of OD of positive control-mean of OD of negative control)×100).
The results (% inhibition) were processed by using SoftMax Pro software (Molecular Device, USA).

[1] = DPPH radical scavenging assay (in vitro antioxidant activity); settings: DPPH 300 μM, 30 min at 37 °C, NA = not active, failed to show 50% or more inhibition at 500 μM or more; for IC50: read-out: IC50 ± SEM, DPPH Radical Scavenging Assay
Procedure: Test samples were allowed to react with stable free radical, 1,1-diphenyl-2-picrylhydrazyl radical (DPPH, Wako Chemicals, Shanghai, China) for half an hour at 37 °C. Various concentrations of test samples (prepared in DMSO) were incubated with DPPH (300 μM; prepared in ethanol). After incubation, decrease in absorption was measured at 515 nm by using a microplate reader (SpectraMax plus 384). Percentage radical scavenging activity (% RSA) of samples was determined in comparison with a DMSO-treated control group. Percentage of radical scavenging activity was calculated by using the formula given in statistical analysis section.
(§1) All reactions were performed in triplicate in a final volume of 200 μL. The results were processed using SoftMax Pro 4.8 software (Molecular Devices, Sunnyvale, CA, USA) and then using MS Excel. The percentage of inhibition was calculated by the following formula:
(§2) % Inhibition=100-(OD of test sample/OD of the control)×100

β-glucuronidase = target: T1, β-glucuronidase (Escherichia coli, UniProt P05804); test: In vitro β-glucuronidase inhibition assay; type: biochemical; settings: substrate p-nitrophenyl-β-D-glucuronide, 37 °C; NA = not active, failed to show 50% or more inhibition at 500 μM or more; read-out: IC50 ± SEM, β-Glucuronidase Inhibition
T1 construct: purchased Sigma Aldrich G7396-25KU
T1 sequence (P05804 whole entry): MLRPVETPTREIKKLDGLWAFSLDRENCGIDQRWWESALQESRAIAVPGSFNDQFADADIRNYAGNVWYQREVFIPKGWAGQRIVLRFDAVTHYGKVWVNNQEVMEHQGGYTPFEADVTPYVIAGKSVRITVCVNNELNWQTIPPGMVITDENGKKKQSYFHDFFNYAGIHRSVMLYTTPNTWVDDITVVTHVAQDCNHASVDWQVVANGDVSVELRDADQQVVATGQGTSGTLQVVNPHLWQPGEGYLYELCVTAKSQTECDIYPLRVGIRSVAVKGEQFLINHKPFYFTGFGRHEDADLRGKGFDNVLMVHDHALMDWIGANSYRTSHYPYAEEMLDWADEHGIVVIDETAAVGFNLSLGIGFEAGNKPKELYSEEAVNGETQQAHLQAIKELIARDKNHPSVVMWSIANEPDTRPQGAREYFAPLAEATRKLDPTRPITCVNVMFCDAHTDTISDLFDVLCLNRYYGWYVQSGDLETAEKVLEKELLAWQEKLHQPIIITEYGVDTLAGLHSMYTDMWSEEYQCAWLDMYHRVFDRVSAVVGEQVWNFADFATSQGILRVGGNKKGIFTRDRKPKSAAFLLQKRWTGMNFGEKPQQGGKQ
Procedure: Results are presented here as means ± standard error mean from triplicate (n = 3) observation. IC50 Values were determined by using EZ-FIT, enzyme kinetics software by Perrella Scientific, Inc., USA.
β-Glucuronidase inhibitory activity was determined by the spectrophotometric method by measuring the absorbance at 405 nm of p-nitrophenol formed from the substrate p-nitrophenyl-β-D-glucuronide N1627-250 mg (Sigma Aldrich Co., 3050 spruce street, St. Louis, MO, USA). The total reaction volume was 250 μL. The compound (5 μL) was dissolved in DMSO (100%), which became 2% in the ultimate assay (250 μL) and similar conditions were used for standard (D-saccharic acid 1,4-lactone, Sigma Aldrich Co.). The reaction mixture contained 185 μL of 0.1 M acetate buffer, 5 μL of test compound solution, 10 μL of (1U) enzyme solution (G7396-25KU, Sigma Aldrich) was incubated at 37 °C for 30 min. The plates were read on a multiplate reader (SpectraMax plus 384) at 405 nm after the addition of 50 μL of 0.4 mM p-nitrophenyl-β-D-glucuronide. All assays were performed in triplicate. IC50 Values were calculated by using EZ-Fit software (Perrella Scientific Inc., Amherst, MA, USA). These values are the mean of three independent readings.

[2] = target: T2, α-Glucosidase from Saccharomyces cerevisiae (Saccharomyces cerevisiae, UniProt P53341); test: In vitro α-glucosidase inhibition assay; type: biochemical; settings: pH 6.8, substrate p-nitrophenyl-α-D-glucopyranoside, NA = not active, failed to show 50% or more inhibition at 500 μM or more; for IC50: read-out: IC50 ± SEM, α-Glucosidase Inhibition
T2 construct: purchased Sigma Aldrich G0660-750UN
T2 sequence (P53341 whole entry): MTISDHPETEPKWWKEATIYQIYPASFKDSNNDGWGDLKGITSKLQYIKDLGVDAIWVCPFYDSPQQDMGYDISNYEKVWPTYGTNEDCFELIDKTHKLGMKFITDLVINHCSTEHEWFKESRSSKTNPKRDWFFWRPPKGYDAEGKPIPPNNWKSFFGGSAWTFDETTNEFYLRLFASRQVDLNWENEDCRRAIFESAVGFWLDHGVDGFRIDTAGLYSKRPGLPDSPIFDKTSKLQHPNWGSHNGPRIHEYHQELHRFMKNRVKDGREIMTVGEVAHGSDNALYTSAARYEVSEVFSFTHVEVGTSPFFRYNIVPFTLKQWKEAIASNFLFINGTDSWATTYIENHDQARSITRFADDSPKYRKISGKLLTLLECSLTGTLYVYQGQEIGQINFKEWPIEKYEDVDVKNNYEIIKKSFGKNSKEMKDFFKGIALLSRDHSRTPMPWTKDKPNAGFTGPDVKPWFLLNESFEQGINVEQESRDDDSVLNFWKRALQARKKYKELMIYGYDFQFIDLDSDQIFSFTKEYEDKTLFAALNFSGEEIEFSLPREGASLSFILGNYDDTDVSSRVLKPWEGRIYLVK
Procedure: α-Glucosidase inhibition assay was performed spectrophotometrically. α-Glucosidase from Saccharomyces cerevisiae (G0660-750UN, Sigma Aldrich), was dissolved in phosphate buffer (pH 6.8, 50 mM). Test compounds were dissolved in 70% DMSO. In 96-well plates, 20 μL of test sample, 20 μL of enzyme and 135 μL of buffer were added and incubated for 15 min at 37 °C. After incubation, 25 μL of p-nitrophenyl-α-D-glucopyranoside (0.7 mM, Sigma Aldrich) was added and change in absorbance was monitored for 30 min at 400 nm. Test compound was replaced with DMSO (7.5% final) in control. Acarbose (Sigma Aldrich) was used as a standard inhibitor [25, 26].
as §1, §2

Compound	IC50 (β-glucuronidase)	IC50 (PC-3 cell line; Homo sapiens, PC-3, 48 h)	melting point	other results
3,3′-(3-Methyl-4-Phenylthieno[2,3-b]Thiophene-2,5-Diyl)Bis(1-Phenyl-1H-Pyrazole) [Compound 5b]	8.7 ± 0.1 µM	–	–	IC50 (PC-3 cell line; 48 h): > 30 µM; IC50 [1]: 165 ± 2.8 µM; IC50 [2]: 58.4 ± 1.2 µM
Cc1c(C(=O)C=CN(C)C)sc2sc(C(=O)C=CN(C)C)c(-c3ccccc3)c12 [Compound 3, 1,1′-(3-Methyl-4-Phenylthieno[2,3-b]Thiophene-2,5-Diyl)Bis(3-(Dimethylamino)Prop-2-En-1-One)]	–	> 30 µM	250 °C	–
Cc1c(-c2ccnc(O)n2)sc2sc(-c3ccnc(O)n3)c(-c3ccccc3)c12 [Compound 4a, 4,4′-(3-Methyl-4-Phenylthieno[2,3-b]Thiophene-2,5-Diyl)Dipyrimidin-2-Ol]	–	> 30 µM	248 °C	–
Cc1c(-c2ccnc(S)n2)sc2sc(-c3ccnc(S)n3)c(-c3ccccc3)c12 [Compound 4b, 4,4′-(3-Methyl-4-Phenylthieno[2,3-b]Thiophene-2,5-Diyl)Dipyrimidin-2-Thiol]	1.3 ± 0.2 µM	> 30 µM	247 °C	IC50 ± SEM, DPPH Radical Scavenging Assay [1]: inactive; IC50 ± SEM, α-Glucosidase Inhibition [2]: inactive
Cc1c(-c2ccnc(N)n2)sc2sc(-c3ccnc(N)n3)c(-c3ccccc3)c12 [Compound 4c, 4,4′-(3-Methyl-4-Phenylthieno[2,3-b]Thiophene-2,5-Diyl)Dipyrimidin-2-Amine]	–	–	246 °C	–
Cc1c(-c2cc[nH]n2)sc2sc(-c3cc[nH]n3)c(-c3ccccc3)c12 [Compound 5a, 3,3′-(3-Methyl-4-Phenylthieno[2,3-b]Thiophene-2,5-Diyl)Bis(1H-Pyrazole)]	2.3 ± 0.4 µM	22.5 ± 0.1 µM	177 °C	IC50 ± SEM, DPPH Radical Scavenging Assay [1]: no antioxidant activity; IC50 [2]: 22 ± 0.3 µM
Cc1c(-c2ccnc3ncnn23)sc2sc(-c3ccnc4ncnn34)c(-c3ccccc3)c12 [Compound 6, 7,7′-(3-Methyl-4-Phenylthieno[2,3-b]Thiophene-2,5-Diyl)Di-[1,2, 4]Triazolo[1,5-a]Pyrimidine]	–	> 30 µM	245 °C	–
Cc1c(-c2ccnc3nc4ccccc4n23)sc2sc(-c3ccnc4nc5ccccc5n34)c(-c3ccccc3)c12 [Compound 7, 2,2′-(3-Methyl-4-Phenylthieno[2,3-b]Thiophene-2,5-Diyl)Bis(Benzo[4, 5]Imidazo[1,2-a] Pyrimidine)]	–	> 30 µM	245 °C	–
O=C(O)[C@@H](O)[C@H]1OC(=O)[C@H](O)[C@H]1O [D-Saccharic acid 1,4-lactone, D-saccharic acid 1,4-lactone, reference compound]	45.8 µM	–	–	–
COc1cccc2c1C(=O)c1c(O)c3c(c(O)c1C2=O)C[C@@](O)(C(=O)CO)C[C@@H]3O[C@H]1C[C@H](N)[C@H](O)[C@H](C)O1 [Doxorubicin, reference compound]	–	0.91 ± 0.1 µM	–	–
CC(=O)N[C@@H](CS)C(=O)O [N-Acetylcysteine, reference compound]	–	–	–	IC50 [1]: 106 ± 1.1 µM
